Data taken from publication PMC6013238, “Development of novel NEMO-binding domain mimetics for inhibiting IKK/NF-κB activation” (PLoS Biology, 2018).

Biological target: T1, GST-NEMO and FLAG-IKKβ (Homo sapiens, UniProt Q9Y6K9)
T1 construct: Recombinant full-length NEMO tagged with GST at the N-terminus; purchased SignalChem (GST-NEMO); Origene (IKKβ-FLAG)
Test: IKKβ-NEMO binding assay (GST pull-down, recombinant proteins)
Settings: at 12.5 μM; 15 nM each protein
Description: To determine whether the novel NBD mimetics target the NEMO-IKKβ interaction in vivo, co-immunoprecipitations were performed using extracts from Raw 264.7 macrophages (Fig 5A). […] No interaction between NEMO and TNF receptor-associated factor 2 (TRAF2) or IκBα was observed under these conditions. […] The levels of phosphorylated IKK complex, IκBα, and p65 in response to TNF-α and LPS were all reduced by SR12343 (Fig 5D & 5E). […] However, there were no changes in the levels of phospho-c-Jun N-terminal kinase (p-JNK), p-p38MAPK, total JNK, and p38MAPK by treatment with SR12343 (150 μM) in response to TNF-α or LPS stimulation (Fig 5G & 5H). […]
(A) Co-IP analysis detecting the IKKβ/NEMO interaction. […] NEMO-binding products were then analyzed for levels of IKKβ, IKKα, TRAF2, and IκBα (negative control), and levels of NEMO were used as a loading control (left panel). […] The levels of IKKβ-FLAG binding to GST-NEMO were determined by western blot analysis with GST-NEMO used as a loading control. […] Cell lysates were analyzed for activity of the IKK/NF-κB signaling pathway including activation of IKK complex, IκBα, and p65. […] Cell lysates were harvested and analyzed for activation of noncanonical NF-κB signaling, the processing of p100 to p52. […]

T1 sequence (Q9Y6K9 whole entry): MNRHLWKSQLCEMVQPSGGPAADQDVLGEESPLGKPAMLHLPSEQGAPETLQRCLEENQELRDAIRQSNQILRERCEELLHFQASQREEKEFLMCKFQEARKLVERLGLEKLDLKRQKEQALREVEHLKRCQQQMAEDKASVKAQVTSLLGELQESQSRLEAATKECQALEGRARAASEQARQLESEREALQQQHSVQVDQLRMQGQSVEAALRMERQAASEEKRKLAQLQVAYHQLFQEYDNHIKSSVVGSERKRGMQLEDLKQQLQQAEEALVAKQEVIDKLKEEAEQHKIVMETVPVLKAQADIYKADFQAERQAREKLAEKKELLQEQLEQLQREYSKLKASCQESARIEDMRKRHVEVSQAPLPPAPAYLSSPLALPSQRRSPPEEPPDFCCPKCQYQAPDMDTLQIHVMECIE

O=C(CNc1ccc(Cl)cn1)NCCc1cccc(Br)c1 [SR12343]
Disruption of interaction between GST-NEMO and FLAG-IKKβ: able to disrupt
